The values below come from US11267826B2, “Penicillin-binding protein inhibitors” (priority 2017, dated 2022).

Broadly, the MIC is the smallest concentration in the dilution series that meets the test's criterion for growth inhibition.

Assay [1] addresses T1, E. coli PBP3 (Escherichia coli, UniProt P0AD68).
T1 construct: 100 μg's of total membrane protein extracts containing PBPs; endogenous in cells; host or cells: Escherichia coli K12, membrane protein fraction
Briefly: Bocillin FL competition binding assay, PBP3. Set-up: species or system Escherichia coli K12. The settings on record: 15 min pre-incubation. How it is done: (§1) To determine the ability of test compounds to bind Penicillin Binding Proteins (PBPs), a competition binding assay using Bocillin FL (fluorescent derivative of penicillin V) was adapted from the classical method used to assess PBP potency of beta-lactams.
(§2) Penicillin binding proteins were isolated from Escherichia coli K12 by growth of Escherichia coli K12 from a single colony in 4 L of Luria-Bertani (LB) broth at 35° C. and 250 rpm to an OD600 nm of 0.5. The cells were harvested by centrifugation at 7,000×g for 10 min. at 4° C. Cells were resuspended and washed in 50 mM potassium phosphate pH 7.5. The cells were re-suspended in sonication buffer [50 mM Tris-HCl pH 7.5, 1 mM MgCl2, 1 mM beta-mercaptoethanol, and 5 μg/mL DNAse I] and sonicated by 4 passes of 30 seconds at 45 W on ice. The sample was clarified by centrifugation at 3,000×g to remove cell debris and unbroken cells and supernatant containing the membrane proteins was retained. The membrane proteins including the PBPs were further purified from soluble constituents by an ultracentrifugation step at 100,000×g for 30 min. at 4° C. The membrane proteins are washed twice with 10 mM sodium phosphate pH 7, resuspended in a volume of 5 mL, quantitated by BCA assay, adjusted to […] and frozen at −80° C. until use.
(§3) The adapted Bocillin FL competition binding method described herein incorporates a 15 min. pre-incubation of test compound with isolated PBPs to attempt to balance the difference in mechanism of inhibition between beta-lactams (largely irreversible covalent bond to active site Serine) and the boron-containing PBP inhibitor test compounds (reversible covalent bond to active site Serine). Briefly, 50 μL reactions consisted of 100 μg's of total membrane protein extracts containing PBPs incubated with a dilution series of test compound ranging from 0.005 μg/mL to 2,480 μg/mL in 10 mM sodium phosphate pH7 containing 350 mM NaCl. Thirty minute reactions at 35° C. were initiated by addition of […] Bocillin FL, quenched by addition of SDS-PAGE loading buffer containing sodium dodecyl sulfate (SDS) and heated for 15 minutes at 95° C. to denature proteins in preparation for SDS-polyacrylamide gel electrophoresis. The Bocillin FL labeled PBPs are then separated by SDS-PAGE in Novex NuPage 10% Bis-Tris pre-cast gels (Invitrogen). The SDS-PAGE gel, post-electrophoresis, is then washed in water to remove excess SDS for 10 minutes at room temperature and placed on the scanning bed of a GE Healthcare/Amersham Biosciences Storm 860 fluorescence scanner. The excitation wavelength is in the blue spectrum at 450 nm and the emission at 520 nm is captured by the instrument. Effective PBP inhibitors are detected by a reduction in Bocillin FL labeling of the particular PBP over the dose range of test compound in a dose-responsive manner. High molecular weight PBP 1a/1b are not resolved by these gels, thus we report HMW PBP binding results in μg/mL for PBPs 1a/1b combined as well as for PBP2 and PBP3.
(§4) Representative results are shown in Table 2, where A represents a potency of >1000 μg/mL, B represents a potency between 64 and 1000 μg/mL inclusive, and C represents a potency of <64 μg/mL. NT=Not Tested.

Assay [2] deals with T2, E. coli PBP2 (Escherichia coli, UniProt P0AD65).
T2 construct: 100 μg's of total membrane protein extracts containing PBPs; endogenous in cells; host or cells: Escherichia coli K12, membrane protein fraction
T2 sequence (P0AD65 whole entry): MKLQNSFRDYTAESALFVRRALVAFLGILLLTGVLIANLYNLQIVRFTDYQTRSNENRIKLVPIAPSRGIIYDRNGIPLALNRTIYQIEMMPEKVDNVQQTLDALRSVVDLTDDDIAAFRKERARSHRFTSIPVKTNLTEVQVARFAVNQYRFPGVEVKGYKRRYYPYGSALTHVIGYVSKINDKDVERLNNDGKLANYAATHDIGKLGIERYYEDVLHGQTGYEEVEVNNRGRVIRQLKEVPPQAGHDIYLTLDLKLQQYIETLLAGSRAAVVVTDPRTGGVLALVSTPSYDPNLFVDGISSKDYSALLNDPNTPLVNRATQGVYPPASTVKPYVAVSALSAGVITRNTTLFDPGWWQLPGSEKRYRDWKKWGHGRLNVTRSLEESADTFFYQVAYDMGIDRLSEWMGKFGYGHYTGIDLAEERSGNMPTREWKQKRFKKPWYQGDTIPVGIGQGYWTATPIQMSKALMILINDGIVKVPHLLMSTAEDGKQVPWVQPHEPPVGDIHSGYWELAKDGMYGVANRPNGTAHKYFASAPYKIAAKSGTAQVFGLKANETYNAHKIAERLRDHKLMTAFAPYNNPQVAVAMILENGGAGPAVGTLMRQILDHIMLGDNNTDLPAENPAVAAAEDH
Briefly: Bocillin FL competition binding assay, PBP2. Set-up: species or system Escherichia coli K12. To be noted: 15 min pre-incubation. How it is done: as §1, §2, §3, §4

The subject of assay [3] is E. coli K12 PBP1a/b. Briefly: Bocillin FL competition binding assay, PBP1a/1b combined. Set-up: species or system Escherichia coli K12. To be noted: 15 min pre-incubation, PBP 1a/1b combined. The procedure: as §1, §2, §3, §4
Assay [4] deals with hyper-permeable E. coli 901C. Briefly: Broth microdilution MIC assay, hyper-permeable E. coli. To be noted: for MIC: Escherichia coli, read-out: E. coli 901C MIC. Format: cell-based. An outline of the steps:
(§5)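 Visual no-growth endpoint defines the MIC. Inoculum of 5×10^5 CFU/mL in divalent-cation-supplemented Mueller-Hinton broth was exposed to 2-fold dilution series of compound, then incubated 16-20 hours at 37° C per CLSI.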
On the technique in general: Dilution methods test growth across graded concentrations, often in twofold steps.

The subject of assay [5] is S. aureus ATCC 29213. Briefly: Broth microdilution MIC assay, S. aureus. It counts as cell-based. The settings on record: broth microdilution, 16-20 hours at 37° C.; for MIC: Staphylococcus aureus, ATCC29213, read-out: S. aureus 29213 MIC. An outline of the steps:
as §5

T1 sequence (P0AD68 1-577): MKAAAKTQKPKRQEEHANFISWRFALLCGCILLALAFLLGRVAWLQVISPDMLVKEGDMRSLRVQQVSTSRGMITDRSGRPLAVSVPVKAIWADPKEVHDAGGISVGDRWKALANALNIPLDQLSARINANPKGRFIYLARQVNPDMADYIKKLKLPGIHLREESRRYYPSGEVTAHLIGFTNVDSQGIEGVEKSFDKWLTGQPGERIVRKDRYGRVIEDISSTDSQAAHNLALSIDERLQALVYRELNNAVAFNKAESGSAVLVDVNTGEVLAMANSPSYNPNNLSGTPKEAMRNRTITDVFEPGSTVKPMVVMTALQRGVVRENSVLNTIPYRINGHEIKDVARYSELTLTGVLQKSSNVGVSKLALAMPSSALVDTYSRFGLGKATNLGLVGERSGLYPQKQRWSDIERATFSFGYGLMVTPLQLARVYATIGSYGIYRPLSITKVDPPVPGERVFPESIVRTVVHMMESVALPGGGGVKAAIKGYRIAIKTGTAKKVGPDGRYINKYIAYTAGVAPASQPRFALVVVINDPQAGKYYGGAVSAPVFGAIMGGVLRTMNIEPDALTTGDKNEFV

Turning to `N#CC1CCC(NC(=O)CO/N=C(\C(=O)N[C@H]2Cc3cccc(C(=O)O)c3OB2O)c2csc(N)n2)CC1` (stereo partly drawn) [Example 63, (R)-3-((Z)-2-(2-aminothiazol-4-yl)-2-((2-(((1s,4S)-4-cyanocyclohexyl)amino)-2-oxoethoxy)imino)acetamido)-2-hydroxy-3,4-dihydro-2H-benzo[e][1,2]oxaborinine-8-carboxylic Acid], the “E. coli PBP3 Potency” value in assay [1] is reported as “C (C represents a potency of <64 μg/mL)”. For the same molecule, the “E. coli PBP2 Potency” value in assay [2] was “B (B represents a potency between 64 and 1000 μg/mL inclusive)”. Besides, the “E. coli K12 PBP1a/b Potency” value in assay [3] was “B (B represents a potency between 64 and 1000 μg/mL inclusive)”.

Regarding `Nc1nc(/C(=N/OCC(=O)NCCCCCNC(=O)CBr)C(=O)N[C@H]2Cc3cccc(C(=O)O)c3OB2O)cs1` [Example 78, (R,Z)-3-(2-(2-aminothiazol-4-yl)-15-bromo-6,14-dioxo-4-oxa-3,7,13-triazapentadec-2-enamido)-2-hydroxy-3,4-dihydro-2H-benzo[e][1,2]oxaborinine-8-carboxylic Acid], in assay [1], the “E. coli PBP3 Potency” value was “B (B represents a potency between 64 and 1000 μg/mL inclusive)”. In addition, the “E. coli PBP2 Potency” value in assay [2] was “B (B represents a potency between 64 and 1000 μg/mL inclusive)”. Moreover, in assay [3], the “E. coli K12 PBP1a/b Potency” value was “B (B represents a potency between 64 and 1000 μg/mL inclusive)”. For the same molecule, the minimal inhibitory concentration (MIC) in assay [4] was more than 128 mg/L.

As for `O=C(O)CO/N=C(/Cn1cncn1)C(=O)N[C@H]1Cc2cccc(C(=O)O)c2OB1O` [Example 112, (R,Z)-3-(2-((carboxymethoxy)imino)-3-(1H-1,2,4-triazol-1-yl)propanamido)-2-hydroxy-3,4-dihydro-2H-benzo[e][1,2]oxaborinine-8-carboxylic Acid], the minimal inhibitory concentration (MIC) in assay [5] and in assay [4] was more than 128 mg/L in each case.

`Nc1nc(/C(=N/OCC(F)F)C(=O)N[C@H]2Cc3cccc(C(=O)O)c3OB2O)cs1` [Example 114, (R,Z)-3-(2-(2-aminothiazol-4-yl)-2-((2,2-difluoroethoxy)imino)acetamido)-2-hydroxy-3,4-dihydro-2H-benzo[e][1,2]oxaborinine-8-carboxylic Acid]: the minimum inhibitory concentration (MIC) in assay [5] is 64 to 128 mg/L; in assay [4] it was less than 64 mg/L.

In the case of `Nc1nc(/C(=N/OCCCCl)C(=O)N[C@H]2Cc3cccc(C(=O)O)c3OB2O)cs1` [Example 115, (R,Z)-3-(2-(2-aminothiazol-4-yl)-2-((3-chloropropoxy)imino)acetamido)-2-hydroxy-3,4-dihydro-2H-benzo[e][1,2]oxaborinine-8-carboxylic Acid], the MIC is more than 128 mg/L in assay [5] and less than 64 mg/L in assay [4].

For the molecule `Nc1nc(/C(=N/OCCCBr)C(=O)N[C@H]2Cc3cccc(C(=O)O)c3OB2O)cs1` [Example 116, (R,Z)-3-(2-(2-aminothiazol-4-yl)-2-((3-bromopropoxy)imino)acetamido)-2-hydroxy-3,4-dihydro-2H-benzo[e][1,2]oxaborinine-8-carboxylic Acid], the MIC in assay [5] and in assay [4] was more than 128 mg/L throughout.

As to `Nc1nc(/C(=N/OCC(F)(F)F)C(=O)N[C@H]2Cc3cccc(C(=O)O)c3OB2O)cs1` [Example 117, (R,Z)-3-(2-(2-aminothiazol-4-yl)-2-((2,2,2-trifluoroethoxy)imino)acetamido)-2-hydroxy-3,4-dihydro-2H-benzo[e][1,2]oxaborinine-8-carboxylic Acid], the minimum inhibitory concentration (MIC) in assay [5] was 64 to 128 mg/L; in assay [4], less than 64 mg/L.

On to `CC(=O)NCCO/N=C(\C(=O)N[C@H]1Cc2cccc(C(=O)O)c2OB1O)c1csc(N)n1` [Example 119, (R,Z)-3-(2-((2-acetamidoethoxy)imino)-2-(2-aminothiazol-4-yl)acetamido)-2-hydroxy-3,4-dihydro-2H-benzo[e][1,2]oxaborinine-8-carboxylic Acid], for which the minimum inhibitory concentration (MIC) is more than 128 mg/L in assay [5] and 64 to 128 mg/L in assay [4].

Turning to `CS(=O)(=O)NCCO/N=C(\C(=O)N[C@H]1Cc2cccc(C(=O)O)c2OB1O)c1csc(N)n1` [Example 120, (R,Z)-3-(2-(2-aminothiazol-4-yl)-2-((2-(methylsulfonamido)ethoxy)imino)acetamido)-2-hydroxy-3,4-dihydro-2H-benzo[e][1,2]oxaborinine-8-carboxylic Acid], the minimal inhibitory concentration (MIC) in assay [5] was more than 128 mg/L; in assay [4], 64 to 128 mg/L.

On to `O=C(N[C@H]1Cc2cccc(C(=O)O)c2OB1O)/C(=N\O)c1csc(NCc2ccccn2)n1` [Example 121, (R,Z)-2-hydroxy-3-(2-(hydroxyimino)-2-(2-((pyridin-2-ylmethyl)amino)thiazol-4-yl)acetamido)-3,4-dihydro-2H-benzo[e][1,2]oxaborinine-8-carboxylic Acid], for which the minimal inhibitory concentration (MIC) is less than 64 mg/L in assay [5] and more than 128 mg/L in assay [4].

As for `O=C(N[C@H]1Cc2cccc(C(=O)O)c2OB1O)/C(=N\O)c1csc(NCCc2ccccn2)n1` [Example 122, (R,Z)-2-hydroxy-3-(2-(hydroxyimino)-2-(2-((2-(pyridin-2-yl)ethyl)amino)thiazol-4-yl)acetamido)-3,4-dihydro-2H-benzo[e][1,2]oxaborinine-8-carboxylic Acid], the minimal inhibitory concentration (MIC) in assay [5] is less than 64 mg/L; in assay [4], more than 128 mg/L.

Regarding `O=C(N[C@H]1Cc2cccc(C(=O)O)c2OB1O)/C(=N\O)c1csc(NCCc2ccncc2)n1` [Example 123, (R,Z)-2-hydroxy-3-(2-(hydroxyimino)-2-(2-((2-(pyridin-4-yl)ethyl)amino)thiazol-4-yl)acetamido)-3,4-dihydro-2H-benzo[e][1,2]oxaborinine-8-carboxylic Acid], the MIC in assay [5] is less than 64 mg/L; in assay [4], more than 128 mg/L.

On to `O=C(N[C@H]1Cc2cccc(C(=O)O)c2OB1O)/C(=N/O)c1csc(NCCc2ccncc2)n1` [Example 124, (R,E)-2-hydroxy-3-(2-(hydroxyimino)-2-(2-((2-(pyridin-4-yl)ethyl)amino)thiazol-4-yl)acetamido)-3,4-dihydro-2H-benzo[e][1,2]oxaborinine-8-carboxylic Acid], for which the MIC in assay [5] and in assay [4] was more than 128 mg/L each time.

In the case of `Cc1cc(C)n2c1C=C1C=CC(CCC(=O)NCCON=C(C(=O)N[C@H]3Cc4cccc(C(=O)O)c4OB3O)c3csc(N)n3)=[N+]1[B-]2(F)F` [Example 125, (R)-3-(2-(2-aminothiazol-4-yl)-2-((2-(3-(5,5-difluoro-7,9-dimethyl-5H-4λ^4,5λ^4-dipyrrolo[1,2-c:2′,1′-f][1,3,2]diazaborinin-3-yl)propanamido)ethoxy)imino)acetamido)-2-hydroxy-3,4-dihydro-2H-benzo[e][1,2]oxaborinine-8-carboxylic Acid], in assay [5], the “S. aureus 29213 MIC” value was “A (A represents an MIC >128 μg/mL)”. Moreover, the “E. coli 901C MIC” value in assay [4] (broth microdilution, 16-20 hours at 37° C.) is given as “A (A represents an MIC >128 μg/mL)”.

As for `O=C(N[C@H]1Cc2cccc(C(=O)O)c2OB1O)/C(Cn1cncn1)=N\O` [Example 126, (R,Z)-2-hydroxy-3-(2-(hydroxyimino)-3-(1H-1,2,4-triazol-1-yl)propanamido)-3,4-dihydro-2H-benzo[e][1,2]oxaborinine-8-carboxylic Acid], the minimum inhibitory concentration (MIC) in assay [5] and in assay [4] was more than 128 mg/L each time.

Consider `O=C(N[C@H]1Cc2cccc(C(=O)O)c2OB1O)/C(Cn1nccn1)=N\O` [Example 127, (R,Z)-2-hydroxy-3-(2-(hydroxyimino)-3-(2H-1,2,3-triazol-2-yl)propanamido)-3,4-dihydro-2H-benzo[e][1,2]oxaborinine-8-carboxylic Acid], for which the minimum inhibitory concentration (MIC) in assay [5] and in assay [4] was more than 128 mg/L each time.
